According to PubChem BioAssay (NCI):
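Each compound was tested at five concentrations against cells in 96-well plates for 48 hours. TGI denotes the concentration required for complete inhibition of growth.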

Legend:
Experiment in all cases: NCI anticancer screen, dose series, 48 h
[1] = test system: SK-MEL-5 melanoma
[2] = test system: RPMI-8226 leukemia
[3] = test system: 786-0 renal
[4] = test system: HS 578T breast
[5] = test system: A549 NSCLC
[6] = test system: IGROV1 ovarian
[7] = test system: SW-620 colon
[8] = test system: OVCAR-3 ovarian
[9] = test system: MDA-MB-231 breast
[10] = test system: HCT-116 colon
[11] = test system: NCI/ADR-RES ovarian
[12] = test system: COLO 205 colon
[13] = test system: SN12C renal
[14] = test system: SK-MEL-28 melanoma
[15] = test system: CAKI-1 renal
[16] = test system: SF-539 CNS
[17] = test system: HT29 colon
[18] = test system: T-47D breast
[19] = test system: HCT-15 colon
[20] = test system: UACC-62 melanoma
[21] = test system: HOP-92 NSCLC
[22] = test system: MDA-N
[23] = test system: SR leukemia
[24] = test system: UO-31 renal
[25] = test system: NCI-H226 lung
[26] = test system: SF-295 CNS
[27] = test system: DU-145 prostate
[28] = test system: U251 CNS
[29] = test system: KM12 colon
[30] = test system: A498 renal
[31] = test system: OVCAR-4 ovarian
[32] = test system: NCI-H522 lung
[33] = test system: SF-268 CNS
[34] = test system: OVCAR-8 ovarian
[35] = test system: M14 melanoma
[36] = test system: NCI-H23 lung
[37] = test system: BT-549 breast
[38] = test system: OVCAR-5 ovarian
[39] = test system: ACHN renal
[40] = test system: SNB-19 CNS
[41] = test system: MOLT-4 leukemia
[42] = test system: HOP-62 NSCLC
[43] = test system: HL-60(TB) leukemia
[44] = test system: PC-3 prostate
[45] = test system: EKVX NSCLC
[46] = test system: MDA-MB-435
[47] = test system: SK-OV-3 ovarian
[48] = test system: MALME-3M melanoma
[49] = test system: MCF7 breast
[50] = test system: SK-MEL-2 melanoma
[51] = test system: SNB-75 CNS
[52] = test system: TK-10 renal
[53] = test system: HCC-2998 colon
[54] = test system: NCI-H460 lung
[55] = test system: UACC-257 melanoma
[56] = test system: K-562 leukemia
[57] = test system: LOX IMVI melanoma
[58] = test system: CCRF-CEM leukemia

C=CCN1CCN([C@H](c2ccc(C(=O)N(CC)CC)cc2)c2cccc(OC)c2)CC1
TGI [1]: > 25 µM
TGI [2]: > 25 µM
TGI [3]: > 25 µM
TGI [4]: > 25 µM
TGI [5]: > 25 µM
TGI [6]: > 25 µM
TGI [7]: > 25 µM
TGI [8]: > 25 µM
TGI [9]: > 25 µM
TGI [10]: > 25 µM
TGI [11]: > 25 µM
TGI [12]: > 25 µM
TGI [13]: > 25 µM
TGI [14]: > 25 µM
TGI [15]: > 25 µM
TGI [16]: > 25 µM
TGI [17]: > 25 µM
TGI [18]: > 25 µM
TGI [19]: > 25 µM
TGI [20]: > 25 µM
TGI [21]: > 25 µM
TGI [22]: > 25 µM
TGI [23]: > 25 µM
TGI [24]: > 25 µM
TGI [25]: > 25 µM
TGI [26]: > 25 µM
TGI [27]: > 25 µM
TGI [28]: > 25 µM
TGI [29]: > 25 µM
TGI [30]: > 25 µM
TGI [31]: > 25 µM
TGI [32]: > 25 µM
TGI [33]: > 25 µM
TGI [34]: > 25 µM
TGI [35]: > 25 µM
TGI [36]: > 25 µM
TGI [37]: > 25 µM
TGI [38]: > 25 µM
TGI [39]: > 25 µM
TGI [40]: > 25 µM
TGI [41]: > 25 µM
TGI [42]: > 25 µM
TGI [43]: > 25 µM
TGI [44]: > 25 µM
TGI [45]: > 25 µM
TGI [46]: > 25 µM
TGI [47]: > 25 µM
TGI [48]: > 25 µM
TGI [49]: > 25 µM
TGI [50]: > 25 µM

O=c1c(-c2ccccc2)c2n(c3ccccc13)CCN2
TGI [1]: > 100 µM
TGI [51]: > 100 µM
TGI [2]: > 100 µM
TGI [3]: > 100 µM
TGI [4]: > 100 µM
TGI [5]: > 100 µM
TGI [6]: > 100 µM
TGI [7]: > 100 µM
TGI [8]: 66.6 µM
TGI [9]: > 100 µM
TGI [52]: > 100 µM
TGI [10]: > 100 µM
TGI [53]: > 100 µM
TGI [11]: > 100 µM
TGI [12]: > 100 µM
TGI [13]: > 100 µM
TGI [14]: > 100 µM
TGI [15]: > 100 µM
TGI [16]: > 100 µM
TGI [17]: > 100 µM
TGI [18]: > 100 µM
TGI [19]: > 100 µM
TGI [54]: > 100 µM
TGI [20]: > 100 µM
TGI [21]: > 100 µM
TGI [22]: > 100 µM
TGI [23]: > 100 µM
TGI [55]: > 100 µM
TGI [56]: > 100 µM
TGI [57]: > 100 µM
TGI [24]: > 100 µM
TGI [25]: > 100 µM
TGI [26]: > 100 µM
TGI [27]: > 100 µM
TGI [28]: > 100 µM
TGI [29]: > 100 µM
TGI [30]: > 100 µM
TGI [31]: > 100 µM
TGI [33]: > 100 µM
TGI [34]: > 100 µM
TGI [35]: > 100 µM
TGI [36]: > 100 µM
TGI [37]: > 100 µM
TGI [38]: > 100 µM
TGI [39]: > 100 µM
TGI [40]: 86.9 µM
TGI [41]: > 100 µM
TGI [42]: > 100 µM
TGI [43]: > 100 µM
TGI [44]: > 100 µM
TGI [45]: > 100 µM
TGI [46]: > 100 µM
TGI [58]: > 100 µM
TGI [49]: > 100 µM
TGI [50]: 61.1 µM

Cc1cc(Nc2ccc(S(=O)(=O)O)cc2)c2ccccc2n1
TGI [1]: > 100 µM
TGI [51]: > 100 µM
TGI [2]: > 100 µM
TGI [3]: > 100 µM
TGI [4]: > 100 µM
TGI [5]: > 100 µM
TGI [6]: > 100 µM
TGI [7]: > 100 µM
TGI [8]: > 100 µM
TGI [9]: > 100 µM
TGI [52]: > 100 µM
TGI [10]: > 100 µM
TGI [53]: > 100 µM
TGI [11]: > 100 µM
TGI [12]: > 100 µM
TGI [13]: > 100 µM
TGI [14]: > 100 µM
TGI [15]: > 100 µM
TGI [16]: > 100 µM
TGI [17]: > 100 µM
TGI [18]: > 100 µM
TGI [19]: > 100 µM
TGI [20]: > 100 µM
TGI [21]: > 100 µM
TGI [22]: > 100 µM
TGI [23]: > 100 µM
TGI [55]: > 100 µM
TGI [56]: > 100 µM
TGI [57]: > 100 µM
TGI [24]: > 100 µM
TGI [25]: > 100 µM
TGI [26]: > 100 µM
TGI [27]: > 100 µM
TGI [28]: > 100 µM
TGI [29]: > 100 µM
TGI [30]: > 100 µM
TGI [31]: > 100 µM
TGI [32]: > 100 µM
TGI [33]: > 100 µM
TGI [34]: > 100 µM
TGI [35]: > 100 µM
TGI [36]: > 100 µM
TGI [37]: > 100 µM
TGI [38]: > 100 µM
TGI [39]: > 100 µM
TGI [40]: > 100 µM
TGI [41]: > 100 µM
TGI [42]: > 100 µM
TGI [43]: > 100 µM
TGI [44]: > 100 µM
TGI [45]: > 100 µM
TGI [46]: > 100 µM
TGI [47]: > 100 µM
TGI [58]: > 100 µM
TGI [48]: > 100 µM
TGI [49]: > 100 µM
TGI [50]: > 100 µM
